Literature values in patent US10194661B2, “Methods of making dazomet compositions” (priority 2013, dated 2019).

Legend:
[1] = tested on: bees such as honeybees; conditions: application to wood, which prevents exposure to bees

Row | SMILES | theoretical maximum decomposition rate / stoichiometric conversion rate to MITC (in wood) | toxicity to bees [1] | share of dazomet decomposition products (major product) (dazomet exposed to wood or moist soils)
1 | CN1CSC(=S)N(C)C1 [dazomet, Tetrahydro-3,5-dimethyl-2H-1,3,5-thiadiazine-2-thione] | approximately 45% | relatively non-toxic and harmless | –
2 | CN=C=S [MITC, methyl isothiocyanate] | – | – | approximately 98%
